Laboratory results published in patent US11091497B2, “Pyrano[3,4-b]pyrazine kappa opioid receptor ligands for treating addiction, pruritus, pain, and inflammation” (The Rockefeller University, priority 2017, dated 2021).

Biological target: T1, human kappa opioid receptors (Homo sapiens, UniProt P41145)
T1 construct: expressed in transfected cells; host or cells: U2OS
Experiment: [35S]GTPγS stimulation, membranes from U2OS cells
Format: biochemical
Conditions: for Emax: read-out: GTPγS stimulation % efficacy

T1 sequence (P41145 whole entry): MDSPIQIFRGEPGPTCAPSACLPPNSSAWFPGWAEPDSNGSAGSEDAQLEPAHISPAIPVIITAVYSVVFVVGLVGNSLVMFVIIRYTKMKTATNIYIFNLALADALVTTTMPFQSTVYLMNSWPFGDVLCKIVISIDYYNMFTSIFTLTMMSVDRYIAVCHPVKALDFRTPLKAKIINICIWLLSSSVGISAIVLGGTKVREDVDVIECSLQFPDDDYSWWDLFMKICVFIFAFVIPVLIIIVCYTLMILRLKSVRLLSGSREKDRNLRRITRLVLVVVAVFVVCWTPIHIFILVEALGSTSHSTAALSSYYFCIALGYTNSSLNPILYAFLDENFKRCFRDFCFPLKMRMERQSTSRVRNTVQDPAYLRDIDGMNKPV

Question: What does the source list for `O=C(Cc1ccc(Cl)c(Cl)c1)N1CCN[C@@H]2COC[C@H](N3CCCC3)[C@H]21` (racemic) [Example 5A22, 1-[8-pyrrolidin-1-yl-2,3,4,4a,5,7,8,8a-octahydropyrano(3,4-b)pyrazin-1-yl]-2-(3,4-dichlorophenyl)ethanone]?
Answer: EC50: 63 nM; Emax: 96%

Question: With `CN1CCN(C(=O)Cc2ccc(Cl)c(Cl)c2)[C@H]2[C@H]1COC[C@@H]2N1CCCC1` (racemic) [Example 5A23, 1-[4-methyl-8-pyrrolidin-1-yl-3,4a,5,7,8,8a-hexahydro-2H- -pyrano(3,4-b)pyrazin-1-yl]-2-(3,4-dichlorophenyl)ethanone] as the molecule, how does the EC50 read?
Answer: Its EC50 is 46 nM.

Question: And the Emax?
Answer: The Emax was 76%.
